Patent US6153589A, “2,3-epoxy alcohols, acids and derivatives as anti retroviral chemotherapeutic agents” (The United States of America as represented by the …, priority 1992, dated 2000)
Read-outs that look alike come from different tables or passages of the source. Where a SMILES comes first, the peptide text is derived from it. [ ]: non-standard residue; d: D form. The star is where a group is joined. Sta = CC(C)C[C@H](N)[C@@H](O)CC(=O)O; Isovaleryl = CC(C)CC(=O)*

Tests used:
HIV-2 protease = assay: HIV protease cleavage of nonapeptide (HPLC); type: biochemical; details: 0.5 μl of 10 μg/μl inhibitor in DMSO per 10 μl reaction; pH 6.5, room temperature; pentapeptide product relative to DMSO control; sampled at ca. 16 and 40 hr (time not given)
Description: Activity Against HIV Protease
The assay for proteolyic activity is a modified version of that previously described by Copeland et al., Gene Anal. Tech., 5:109-115 (1988). For each assay to be performed 2 microliters of protease solution (ca. 100 ng) is added to 3 μg of nonapeptide (Val-Ser-Gln-Asn-Tyr-Pro-Ile-Val-Gln-NH2) in 8 μl of 200 mM sodium phosphate, 1 M NaCl, 5% glycerol, 0.25% Nonidet-40, at pH 6.5. This affords a stock solution containing 10 μl per number of reactions. This stock is aliquoted out in 10 μl portions to which 0.5 μl of DMSO (a control is run with each set of assays to compensate for minor experimental variations) or a DMSO solution containing 10 μg/μl of an inhibitor, i.e., any one of the compounds of the present invention, is added. The reactions were incubated at room temperature and 4 μl portions were removed at ca. 16 and 40 hr. intervals. HPLC analysis was performed on a 4.6×250 mm Lichrosorb RP-18 column eluted with a gradient of 0-40% acetonitrile in water (containing 0.05% TFA) over 30 min monitoring absorbance at 206 nm. Progress of the enzymatic cleavage was followed by monitoring the appearance of the pentapeptide (Val-Ser-Gln-Asn-Tyr-OH) cleavage product. The activity is expressed as the amount of the pentapeptide (Val-Ser-Gln-Asn-Tyr-OH) observed relative to the control reaction for that set of assays.
Inhibition of HIV-2 protease

HIV1 IIIb = assay: microbe, parasite or virus in culture; type: cell-based; details: Human immunodeficiency virus 1, IIIB; for viability at 50 µg/mL: 50 ug/ml; for viability at 4.9 µg/mL: 4.9 ug/ml; for viability at 2.9 µg/mL: 2.9 ug/ml; for viability at 21 µg/mL: 21 ug/ml; for viability at 10 µg/mL: 10 ug/ml; for viability at 0.1 µg/mL: 0.1 ug/ml; for viability at 1 µg/mL: 1 ug/ml
Description: In-vitro Screening Anti--HIV XTT Assay
This assay, which is available to the public by the National Cancer Institute, utilizes colorimetry based on the production of a colored formazin from a tetrazolium salt by viable cells, to develop a safe, rapid and quantitative measure of HIV cytopathology. The assay is a modification of the previously described screening method for the detection of anti-tumor drug cytotoxicity (D. A. Scudiero, et al, Cancer Res, 48, 4827-4833 (1988)). It involves the plating of susceptible human "host" cells with and without virus in microculture plates, adding various concentrations of the respective test compounds, incubating the plates for seven days, during which time infected, non-drug treated control cells are largely or totally destroyed by the virus. The number of remaining viable cells are determined utilizing a calorimetric endpoint. A beneficial antiviral effect is indicated by a response % grater than the virus kill %, with 100% being optimal.
Anti-viral effect: Response (Viable Cells, determined by colorometric
absorbance of formazan dye produced) as % of uninfected controls
Virus Source: HIV1 IIIb; C, Virus producing H9 cells; V, cell free virus
Virus Kill: Infected untreated cells as % of uninfected cell controls
*: Culture redosed with compound after 3 days

CCCCCCCCCCC[C@@H]1O[C@@H]1CO (relative stereo) [2-cis-Undecyloxirane methanol]
Percent Control Cleavage of Nonapeptide HIV-1 Cleavage Site Fragment (HIV-2 protease): 104%

CCCCCCCCCCC[C@H]1O[C@@H]1CO (relative stereo) [2-trans-Undecyloxirane methanol]
Percent Control Cleavage of Nonapeptide HIV-1 Cleavage Site Fragment (HIV-2 protease): 88%

CCCCCCC[C@H]1O[C@H]1C (relative stereo) [Example 43, cis-2-Epoxydecene]
Percent Control Cleavage of Nonapeptide HIV-1 Cleavage Site Fragment (HIV-2 protease): 102%

CCCCCCC/C=C\CO [Example 3, cis-2-Decen-1-ol]
Percent Control Cleavage of Nonapeptide HIV-1 Cleavage Site Fragment (HIV-2 protease): 105%

CCCCCCCCC[C@@H]1O[C@@H]1CO [Example 12, (2R-cis)-3-Nonyloxirane Methanol]
viability at 50 µg/mL (HIV1 IIIb; 168 h, read-out: Antiviral Effect (viable cells as % of uninfected controls), run 8, source V (cell free virus), virus kill 27.0%): 56.9% | viability at 4.9 µg/mL (HIV1 IIIb; 168 h, read-out: Antiviral Effect (viable cells as % of uninfected controls), run 9, source V (cell free virus), virus kill 53.0%): 82.4% | viability at 2.9 µg/mL (HIV1 IIIb; 168 h, read-out: Antiviral Effect (viable cells as % of uninfected controls), run 10, source V (cell free virus), virus kill 55.0%): 82.9% | viability at 49 µg/mL (HIV1 IIIb; 168 h, read-out: Antiviral Effect (viable cells as % of uninfected controls), run 11, 49 ug/ml, source V (cell free virus), virus kill 30.0%): 54.9% | viability at 2.9 µg/mL (HIV1 IIIb; 168 h, read-out: Antiviral Effect (viable cells as % of uninfected controls), run 12, source V (cell free virus), virus kill 36.0%): 62.2% | viability at 21 µg/mL (HIV1 IIIb; 168 h, read-out: Antiviral Effect (viable cells as % of uninfected controls), run 13, source V (cell free virus), virus kill 19.5%): 53.4% | viability at 21 µg/mL (HIV1 IIIb; 168 h, read-out: Antiviral Effect (viable cells as % of uninfected controls), run 14, source V (cell free virus), virus kill 24.0%): 98.7% | viability at 10 µg/mL (HIV1 IIIb; H9, 168 h, read-out: Antiviral Effect (viable cells as % of uninfected controls), run 1, source C (virus producing H9 cells), virus kill 6.0%): 75.1% | viability at 10 µg/mL (HIV1 IIIb; H9, 168 h, read-out: Antiviral Effect (viable cells as % of uninfected controls), run 2, source C (virus producing H9 cells), virus kill 27.0%): 71.3% | viability at 50 µg/mL (HIV1 IIIb; H9, 168 h, read-out: Antiviral Effect (viable cells as % of uninfected controls), run 3, source C (virus producing H9 cells), virus kill 16.0%): 32.1% | viability at 4.9 µg/mL (HIV1 IIIb; H9, 168 h, read-out: Antiviral Effect (viable cells as % of uninfected controls), run 4, source C (virus producing H9 cells), virus kill 16.0%): 31.6% | viability at 2.9 µg/mL (HIV1 IIIb; H9, 168 h, read-out: Antiviral Effect (viable cells as % of uninfected controls), run 5, source C (virus producing H9 cells), virus kill 15.0%): 23.1% | viability at 4.9 µg/mL (HIV1 IIIb; H9, 168 h, read-out: Antiviral Effect (viable cells as % of uninfected controls), run 6, source C (virus producing H9 cells), virus kill 11.0%): 16.7% | viability at 29 µg/mL (HIV1 IIIb; H9, 168 h, read-out: Antiviral Effect (viable cells as % of uninfected controls), run 7, 29 ug/ml, source C (virus producing H9 cells), virus kill 11.0%): 15.7% | Percent Control Cleavage of Nonapeptide HIV-1 Cleavage Site Fragment (HIV-2 protease): 96%

OC[C@@H]1O[C@@H]1COCc1ccccc1 [Example 13, (2S-cis)-3-(Benzyloxymethyl)oxirane Methanol]
viability at 0.1 µg/mL (HIV1 IIIb; 168 h, read-out: Antiviral Effect (viable cells as % of uninfected controls), run 4, source V (cell free virus), virus kill 55.0%): 50% | viability at 0.1 µg/mL (HIV1 IIIb; 168 h, read-out: Antiviral Effect (viable cells as % of uninfected controls), run 5, source V (cell free virus), virus kill 27.0%): 52.5% | viability at 4.4 µg/mL (HIV1 IIIb; 168 h, read-out: Antiviral Effect (viable cells as % of uninfected controls), run 6, 4.4 ug/ml, source V (cell free virus), virus kill 24.0%): 28.4% | viability at 0.44 µg/mL (HIV1 IIIb; 168 h, read-out: Antiviral Effect (viable cells as % of uninfected controls), run 7*, 0.44 ug/ml, source V (cell free virus), virus kill 27.0%, culture redosed with compound after 3 days): 30.1% | viability at 0.1 µg/mL (HIV1 IIIb; H9, 168 h, read-out: Antiviral Effect (viable cells as % of uninfected controls), run 1, source C (virus producing H9 cells), virus kill 21.0%): 22.1% | viability at 1 µg/mL (HIV1 IIIb; H9, 168 h, read-out: Antiviral Effect (viable cells as % of uninfected controls), run 2, source C (virus producing H9 cells), virus kill 13.0%): 15.7% | viability at 1 µg/mL (HIV1 IIIb; H9, 168 h, read-out: Antiviral Effect (viable cells as % of uninfected controls), run 3, source C (virus producing H9 cells), virus kill 11.0%): 10.2% | Percent Control Cleavage of Nonapeptide HIV-1 Cleavage Site Fragment (HIV-2 protease): 81%

CCCCCCCCC[C@@H]1O[C@H]1CO [Example 29, (2S-trans)-3-Nonyloxirane Methanol]
Percent Control Cleavage of Nonapeptide HIV-1 Cleavage Site Fragment (HIV-2 protease): 106%

CCCCCCCCC[C@H]1O[C@@H]1CO [Example 30, (2R-trans)-3-Nonyloxirane Methanol]
Percent Control Cleavage of Nonapeptide HIV-1 Cleavage Site Fragment (HIV-2 protease): 105%

CCCCCCCCCCC[C@@H]1O[C@H]1CO [Example 31, (2S-trans)-3-Undecyloxirane Methanol]
Percent Control Cleavage of Nonapeptide HIV-1 Cleavage Site Fragment (HIV-2 protease): 95%

CCCCCCCCCCC[C@H]1O[C@@H]1CO [Example 32, (2R-trans)-3-Undecyloxirane Methanol]
Percent Control Cleavage of Nonapeptide HIV-1 Cleavage Site Fragment (HIV-2 protease): 98%

CCCCCCC[C@@H]1O[C@H]1CO [Example 33, (2S-trans)-3-heptyloxirane Methanol]
Percent Control Cleavage of Nonapeptide HIV-1 Cleavage Site Fragment (HIV-2 protease): 105%

CCCCCCC[C@H]1O[C@@H]1CO [Example 34, (2R-trans)-3-Heptyloxirane Methanol]
Percent Control Cleavage of Nonapeptide HIV-1 Cleavage Site Fragment (HIV-2 protease): 104%

CCCCCCC[C@H]1O[C@H]1C(=O)O [Example 37, (2R-cis)-3-Heptyloxirane Carboxylic Acid]
Percent Control Cleavage of Nonapeptide HIV-1 Cleavage Site Fragment (HIV-2 protease): 104%

CCCCCCC[C@@H]1O[C@@H]1C(=O)O [Example 38, (2S-cis)-3-Heptyloxiranecarboxylic Acid]
Percent Control Cleavage of Nonapeptide HIV-1 Cleavage Site Fragment (HIV-2 protease): 105%

CCCCCCCCC[C@H]1O[C@H]1C(=O)N1CCC[C@H]1C(=O)OC [Example 41, N-(2R-cis)-3-Nonyloxiraneacyl L-proline Methyl Ester]
Percent Control Cleavage of Nonapeptide HIV-1 Cleavage Site Fragment (HIV-2 protease): 24%

CCCCCCCCC[C@H]1O[C@H]1C(=O)N(CC)CC [Example 42, N,N-Diethyl-(2R-cis)-3-nonyloxiranecarboxy Amide]
Percent Control Cleavage of Nonapeptide HIV-1 Cleavage Site Fragment (HIV-2 protease): 77%

CCCCCCCCCCCCCC(=O)O [Myristic Acid, reference compound]
Percent Control Cleavage of Nonapeptide HIV-1 Cleavage Site Fragment (HIV-2 protease): 111%

CC(C)CC(=O)N[C@H](C(=O)N[C@H](C(=O)N[C@@H](CC(C)C)[C@@H](O)CC(=O)N[C@@H](C)C(=O)N[C@@H](CC(C)C)[C@@H](O)CC(=O)O)C(C)C)C(C)C [Pepstatin A, reference compound] (Isovaleryl-VV[Sta]A[Sta]-OH)
Percent Control Cleavage of Nonapeptide HIV-1 Cleavage Site Fragment (HIV-2 protease): 1%
